# Results taken from patent US20130245029A1, “TREATMENT OF CANCER WITH TOR KINASE INHIBITORS” (SIGNAL PHARMACEUTICALS, LLC, priority 2012, published 2013).
# Experiments:
# [1] = tested on: Ewing's sarcoma cell lines (ETS positive cells); experiment: DNA damage COMET assay; format: cell-based; details: 48 hours treatment, FIG. 2
# Source text: DNA Damage Assays: COMET Assay.
# [2] = tested on: ETS overexpressing Ewing sarcoma cell lines; experiment: Soft agar colony formation (clonogenic growth inhibition); format: cell-based; details: 3 weeks in culture, ETS positive versus ETS negative cell lines, FIG. 1
# Protocol: FIG. 1 provides a clonogenic growth inhibition assay for Compound 1 with ETS positive and ETS negative cell lines. […] Soft Agar Colony Formation. A solid layer of 1% agarose is used to coat each well of a 96-well plate. After allowing two hours to cool, five hundred Ewing's cells are suspended in a 33% agarose (10% solution), 33% media with 2×FBS and 33% cell suspension in quadruplicate wells of a 96-well plate. Cells are treated with or without TOR kinase inhibitor in an upper layer of media. Every three days, the media is exchanged for fresh TOR kinase inhibitor containing media. After 3-weeks in culture, images are taken on a 10× objective lens and colonies are counted for each condition.
structure (smiles),measurement,setting,value
"CCN1C(=O)CNc2ncc(-c3ccc(-c4nc[nH]n4)nc3C)nc21 [Compound 1, 1-ethyl-7-(2-methyl-6-(1H-1,2,4-triazol-3-yl)pyridin-3-yl)-3,4-dihydropyrazino[2,3-b]pyrazin-2(1H)-one]",DNA damage (COMET tail moments),[1],potentiates DNA damage
same,sensitivity of colony formation to inhibition,[2],more sensitive
